Assays:
STHdh^Q109 cells [1] = test: Cellular ROS production (H2DCFDA fluorescence); format: cell-based, mouse; conditions: 1 h, FIG. 2
Procedure: Oxidative stress is one of the important events triggers cell death in STHdh^Q109 cells. To investigate whether ginsenoside M1 inhibited cell death of STHdh^Q109 cells by reducing oxidative stress, STHdh^Q109 cells were treated with 1, 10 and 30 μM ginsenoside M1 or vehicle (DMSO) in the presence of 10 μM intracellular ROS indicator fluorescent probe 2,7-dichlorodihydrofluorescein diacetate (H2DCFDA; Molecular Probes, Inc., Eugene, Oregon, USA) for 1 h. Cellular ROS contents were measured by detecting the fluorescence intensity (Excitation/Emission: 488 nm/510 nm) using a fluorescence plate reader (Fluoroskan Ascent; Thermo Electron Corporation, Woburn, MA, USA). […] The results are express as the means±SEM of triplicate samples. Multiple groups will analyze with one-way analysis of variance (ANOVA), follow by a post-hoc Student-Newman-Keuls test. p value of <0.05 will considered significant. ^ap<0.05: compared to untreated (vehicle-treated) STHdh^Q109 cells.

mHtt aggregate = test: mHtt aggregates in striatal lysates, filter retardation assay; format: in vivo, mouse; conditions: R6/2 mice, 30 mg/kg oral daily for 4 weeks from age of 7 weeks, FIG. 9
Procedure: Mice were treated daily with ginsenoside M1 (30 mg/kg of body weight, oral administration) or vehicle for 4 weeks from the age of 7 weeks. The amount of mHtt aggregates in striatal lysates was analyzed by a filter retardation assay. Brain tissues were suspended and homogenized in ice-cold THE buffer, mixed with 2% SDS. Samples were first passed through OE66 membrane filters ([…] pore size; Whatman Schleicher and Schuell, Middlesex, UK) in a slot-blot manifold (Bio-Rad, Irvine, CA, USA). Insoluble aggregates retained on the filters were detected using an anti-Htt antibody.

p53 = test: Phosphorylation level of p53 by Western blot; format: cell-based, mouse; conditions: STHdh^Q109 cells, 24 h, vs vehicle-treated STHdh^Q109 cells, FIG. 6
Procedure: p53 plays a role in the regulation of the cell cycle and apoptosis. p53 becomes activated in response to DNA damage and oxidative stress. To investigate whether ginsenoside M1 inhibited the phosphorylation level of […]7 and […] cells were treated with 10 and 30 μM ginsenoside M1 or vehicle (DMSO) for 24 h. The phosphorylation level of p53 was measured by Western blot.

R6/2 mice [2] = test: Motor coordination, rotarod apparatus assay in HD disease mice; format: in vivo, mouse; conditions: 30 mg/kg oral daily for 4 weeks from age of 7 weeks, rotarod 12 rpm, 2 min, FIG. 7
Procedure: Mice were treated daily with ginsenoside M1 (30 mg/kg of body weight, oral administration) or vehicle for 4 weeks from the age of 7 weeks. Motor coordination was assessed using a rotarod apparatus assay (UGO BASILE, Comerio, Italy) at a constant speed (12 rpm) over a period of 2 min. […] Results were expressed as means±SEM. Multiple groups were analyzed by one-way analysis of variance (ANOVA) followed by a post hoc Student-Newman-Keuls test. ^ap<0.05: between WT and R6/2-vehicle mice. ^bp<0.05: compared to R6/2-vehicle mice.

AMPK = test: Phosphorylation level of AMPK by Western blotting; format: cell-based, mouse; conditions: STHdh^Q109 cells, 24 h, vs vehicle-treated STHdh^Q109 cells, FIG. 3
Procedure: Activation of AMPK promotes the pathogenesis of HD [37]. To investigate whether ginsenoside M1 inhibited AMPK activation, […]7 and […] cells were treated with 10 and 30 μM ginsenoside M1 or vehicle (DMSO) for 24 h. The phosphorylation level of AMPK was measured by Western blotting.

γH2AX = test: Expression level of γH2AX by Western blot; format: cell-based, mouse; conditions: STHdh^Q109 cells, 24 h, vs vehicle-treated STHdh^Q109 cells, FIG. 5
Procedure: ATM is now known to regulate DNA repair through the activation of γH2AX. To investigate whether ginsenoside M1 inhibited the expression level of γH2AX, […]7 and […] cells were treated with 10 and 30 μM ginsenoside M1 or vehicle (DMSO) for 24 h. The expression level of γH2AX was measured by Western blot.

STHdh^Q109 cells [3] = test: MTT reduction assay, survival rate of mHtt expression cells; format: cell-based, mouse; conditions: 24 h
Source text: Conditionally immortalized wild-type […]7 striatal neuronal progenitor cells expressing endogenous normal htt (referred to as wild-type striatal cells), and homozygous mutant […] striatal neuronal progenitor cells from homozygous […] knock-in mice expressing mutant htt with 109 glutamines (referred to as mutant striatal […] and […] cells were generous gifts from Dr. Elena Cattaneo and […] (Department of pharmacological sciences and centre for stem cell research, University of Milano, Italy). These cells were maintained in an incubation chamber at 33° C. in Dulbecco's modified Eagle's medium (DMEM) supplemented with 10% fetal bovine serum (FBS). […]7 and […] cells were treated with 30 μM ginsenoside M1 or vehicle (DMSO) for 24 h. […]7 and […] cells death was quantified by the MTT reduction assay. […] At the end of experiments, cells were incubated in culture medium with 0.5 mg/ml MTT at 37° C. for 2 h. The culture medium was then replaced with DMSO to dissolve the MTT formazan precipitates, which was followed by the measurement of the absorbance at 570 nm using a microplate reader (OPTImax tunable plate reader, Molecular Device, Sunnyvale, CA, USA). The survival rate of the indicated cells was normalized to those survival rate of untreated (vehicle-treated) […]7 cells. As shown in the FIG. 1A, the survival rate of untreated (vehicle-treated) […] cells was lower than that of untreated (vehicle-treated) […]7 cells. […] To confirm the cyto-protective effect of ginsenoside […] cells were treated with 1, 10 and 30 μM ginsenoside M1 or vehicle (DMSO) for 24 h. […] The results are express as the means±SEM of triplicate samples.

R6/2 mice [4] = test: Lifespan of HD disease mice; format: in vivo, mouse; conditions: 30 mg/kg oral daily for 4 weeks from age of 7 weeks, FIG. 8
Procedure: Mice were treated daily with ginsenoside M1 (30 mg/kg of body weight, oral administration) or vehicle for 4 weeks from the age of 7 weeks, and the lifespan of mice was determined. […] Results were expressed as means±SEM. Multiple groups were analyzed by one-way analysis of variance (ANOVA) followed by a post hoc Student-Newman-Keuls test. ^ap<0.05: between WT and R6/2-vehicle mice. ^bp<0.05: compared to R6/2-vehicle mice.

ATM = test: Phosphorylation level of ATM by Western blot; format: cell-based, mouse; conditions: STHdh^Q109 cells, 24 h, vs vehicle-treated STHdh^Q109 cells, FIG. 4
Procedure: ATM is activated by DNA damage and plays important role in the phosphorylation of AMPK. To investigate whether ginsenoside M1 inhibited ATM activation, […]7 and […] cells were treated with 10 and 30 μM ginsenoside M1 or vehicle (DMSO) for 24 h. The phosphorylation level of ATM was measured by Western blot.

CC(C)=CCC[C@](C)(O[C@@H]1O[C@H](CO)[C@@H](O)[C@H](O)[C@H]1O)[C@H]1CC[C@]2(C)[C@@H]1[C@H](O)C[C@@H]1[C@@]3(C)CC[C@H](O)C(C)(C)[C@@H]3CC[C@]12C [ginsenoside M1, 20-O-β-D-glucopyranosyl-20(S)-protopanaxadiol]
ROS production (STHdh^Q109 cells [1]; 10 μM): significantly reduced | ROS production (STHdh^Q109 cells [1]; 30 μM): significantly reduced | mHtt aggregate formation in the striatum (mHtt aggregate): reduced | phosphorylation level of p53 (p53; 10 μM): significantly reduced | phosphorylation level of p53 (p53; 30 μM): significantly reduced | motor coordination (R6/2 mice [2]): increased significantly | phosphorylation level of AMPK (AMPK; 10 μM): significantly reduced | phosphorylation level of AMPK (AMPK; 30 μM): significantly reduced | expression level of γH2AX (γH2AX; 10 μM): significantly reduced | expression level of γH2AX (γH2AX; 30 μM): significantly reduced | survival rate (STHdh^Q109 cells [3]; 10 μM, FIG. 1B): significantly increased | survival rate (STHdh^Q109 cells [3]; 30 μM, FIG. 1A): significantly increased | survival rate (STHdh^Q109 cells [3]; 30 μM, FIG. 1B): significantly increased | lifespan (R6/2 mice [4]): significantly prolonged | phosphorylation level of ATM (ATM; 10 μM): significantly reduced | phosphorylation level of ATM (ATM; 30 μM): significantly reduced
